We go through 1 molecule from patent publication US8507550B2, “Treatment for altitudinal hypoxia” (AesRx LLC, priority 2010, dated 2013).

For one series, the system named is human subject. Briefly: hypoxia induced by moderate exercise at elevated altitude in a human subject. The note with it: 3,000 meters altitude, at rest 3 hours and after one hour bike; dosage giving P50 of 18 mm Hg; day 2 (treated) vs day 1. It counts as in vivo. The protocol:
A 90 kg person in good health is transported from low elevation (<100 meters above sea level) to an altitude of 3,000 meters above sea level and kept at rest there for 3 hours. At that point, the subject is tested for respiration rate, heart rate and extremity O2. The subject is then put on a stationary exercise bike and allowed to ride the bike at a cadence of 40 rpm for one hour. The subject is again tested for respiration rate, heart rate and extremity O2. Then the subject is transported back to low elevation. […] The subject is kept at rest there for 3 hours, then tested for respiration rate, heart rate and extremity O2. The subject is then put on a stationary exercise bike and allowed to ride the bike at a cadence of 40 rpm for one hour. The subject is again tested for respiration rate, heart rate and extremity O2. The data from the two days are then compared.

The next series has as its system rats. To be noted: females; cited from earlier work.
Series [1] has as its system sickle cell disease mouse model. The note with it: Abdulmalik 2004; cited from earlier work.
The subject of the next series is SCD Hb. To be noted: sickle cell disease mouse model; Abdulmalik 2004; cited from earlier work.

For the molecule `O=Cc1ccc(CO)o1` [5-HMF, 5-hydroxymethyl-2-furfural], in the series on human subject, the “respiration rate, heart rate and extremity O2” value is listed as “closer to normal on day 2 than on day 1”. In the series on rats, the “acute oral LD50” value is 2500 to 5000 mg/kg. Also, the “in vivo protection against the lethal effects of hypoxia” value in series [1] is recorded as “provides in vivo protection against the lethal effects of hypoxia”. Also, the “P50 of SCD Hb” value with SCD Hb is reported as “lower P50 (left shift)”.
